This note sets out measurements from patent US9663519B2, “Compounds useful as inhibitors of ATR kinase” (Vertex Pharmaceuticals Incorporated, priority 2013, dated 2017).

Assay [1] relates to HCT116 colorectal cancer cells. Briefly: Cisplatin Sensitization Assay (96 h cell viability MTS). The format is cell-based. To be noted: Cisplatin sensitization value: concentration of compound required to reduce the IC50 of Cisplatin alone by at least 3-fold; HCT116, 96 h MTS. As for the experimental part:
Compounds can be screened for their ability to sensitize HCT116 colorectal cancer cells to Cisplatin using a 96 h cell viability (MTS) assay. […] Compounds and Cisplatin are then both added simultaneously to the cell media in 2-fold serial dilutions from a top final concentration of 10 μM as a full matrix of concentrations in a final cell volume of 200 μl, and the cells are then incubated at 37° C. in 5% CO2. After 96 h, 40 μl of MTS reagent (Promega G358a) is added to each well and the cells are incubated for 1 h at 37° C. in 5% CO2. Finally, absorbance is measured at 490 nm using a SpectraMax Plus 384 reader (Molecular Devices) and the concentration of compound required to reduce the IC50 of Cisplatin alone by at least 3-fold (to 1 decimal place) can be reported.

The next assay concerns the target full-length ATR (Homo sapiens (Human), UniProt Q13535). As to the kind of experiment: ATR Inhibition Assay (radioactive-phosphate incorporation). The format is biochemical. The conditions noted are these: Ki(app); 5 nM full-length ATR, 10 μM ATP, 25° C. As to the method: Compounds were screened for their ability to inhibit ATR kinase using a radioactive-phosphate incorporation assay. Assays were carried out in a mixture of 50 mM Tris/HCl (pH 7.5), 10 mM MgCl2 and 1 mM DTT. Final substrate concentrations were 10 μM [γ-33P]ATP (3 mCi 33P ATP/mmol ATP, Perkin Elmer) and 800 μM target peptide (ASELPASQPQPFSAKKK (SEQ. ID NO: 1)).
Assays were carried out at 25° C. in the presence of 5 nM full-length ATR. An assay stock buffer solution was prepared containing all of the reagents listed above, with the exception of ATP and the test compound of interest. 13.5 μL of the stock solution was placed in a 96 well plate followed by addition of 2 μL of DMSO stock containing serial dilutions of the test compound (typically starting from a final concentration of 15 μM with 3-fold serial dilutions) in duplicate (final DMSO concentration 7%). The plate was pre-incubated for 10 minutes at 25° C. and the reaction initiated by addition of 15 μL [γ-33P]ATP (final concentration 10 μM).
The reaction was stopped after […] by the addition of 30 μL 0.1M phosphoric acid containing 2 mM ATP. A multiscreen phosphocellulose filter 96-well plate (Millipore, Cat no. MAPHN0B50) was pretreated with 100 μL 0.2M phosphoric acid prior to the addition of 45 μL of the stopped assay mixture. The plate was washed with 5×200 μL 0.2M phosphoric acid. After drying, 100 μL Optiphase ‘SuperMix’ liquid scintillation cocktail (Perkin Elmer) was added to the well prior to scintillation counting (1450 Microbeta Liquid Scintillation Counter, Wallac).
After removing mean background values for all of the data points, Ki(app) data were calculated from non-linear regression analysis of the initial rate data using the Prism software package (GraphPad Prism version 3.0cx for Macintosh, GraphPad Software, San Diego Calif., USA).

full-length ATR, sequence (Q13535 whole entry): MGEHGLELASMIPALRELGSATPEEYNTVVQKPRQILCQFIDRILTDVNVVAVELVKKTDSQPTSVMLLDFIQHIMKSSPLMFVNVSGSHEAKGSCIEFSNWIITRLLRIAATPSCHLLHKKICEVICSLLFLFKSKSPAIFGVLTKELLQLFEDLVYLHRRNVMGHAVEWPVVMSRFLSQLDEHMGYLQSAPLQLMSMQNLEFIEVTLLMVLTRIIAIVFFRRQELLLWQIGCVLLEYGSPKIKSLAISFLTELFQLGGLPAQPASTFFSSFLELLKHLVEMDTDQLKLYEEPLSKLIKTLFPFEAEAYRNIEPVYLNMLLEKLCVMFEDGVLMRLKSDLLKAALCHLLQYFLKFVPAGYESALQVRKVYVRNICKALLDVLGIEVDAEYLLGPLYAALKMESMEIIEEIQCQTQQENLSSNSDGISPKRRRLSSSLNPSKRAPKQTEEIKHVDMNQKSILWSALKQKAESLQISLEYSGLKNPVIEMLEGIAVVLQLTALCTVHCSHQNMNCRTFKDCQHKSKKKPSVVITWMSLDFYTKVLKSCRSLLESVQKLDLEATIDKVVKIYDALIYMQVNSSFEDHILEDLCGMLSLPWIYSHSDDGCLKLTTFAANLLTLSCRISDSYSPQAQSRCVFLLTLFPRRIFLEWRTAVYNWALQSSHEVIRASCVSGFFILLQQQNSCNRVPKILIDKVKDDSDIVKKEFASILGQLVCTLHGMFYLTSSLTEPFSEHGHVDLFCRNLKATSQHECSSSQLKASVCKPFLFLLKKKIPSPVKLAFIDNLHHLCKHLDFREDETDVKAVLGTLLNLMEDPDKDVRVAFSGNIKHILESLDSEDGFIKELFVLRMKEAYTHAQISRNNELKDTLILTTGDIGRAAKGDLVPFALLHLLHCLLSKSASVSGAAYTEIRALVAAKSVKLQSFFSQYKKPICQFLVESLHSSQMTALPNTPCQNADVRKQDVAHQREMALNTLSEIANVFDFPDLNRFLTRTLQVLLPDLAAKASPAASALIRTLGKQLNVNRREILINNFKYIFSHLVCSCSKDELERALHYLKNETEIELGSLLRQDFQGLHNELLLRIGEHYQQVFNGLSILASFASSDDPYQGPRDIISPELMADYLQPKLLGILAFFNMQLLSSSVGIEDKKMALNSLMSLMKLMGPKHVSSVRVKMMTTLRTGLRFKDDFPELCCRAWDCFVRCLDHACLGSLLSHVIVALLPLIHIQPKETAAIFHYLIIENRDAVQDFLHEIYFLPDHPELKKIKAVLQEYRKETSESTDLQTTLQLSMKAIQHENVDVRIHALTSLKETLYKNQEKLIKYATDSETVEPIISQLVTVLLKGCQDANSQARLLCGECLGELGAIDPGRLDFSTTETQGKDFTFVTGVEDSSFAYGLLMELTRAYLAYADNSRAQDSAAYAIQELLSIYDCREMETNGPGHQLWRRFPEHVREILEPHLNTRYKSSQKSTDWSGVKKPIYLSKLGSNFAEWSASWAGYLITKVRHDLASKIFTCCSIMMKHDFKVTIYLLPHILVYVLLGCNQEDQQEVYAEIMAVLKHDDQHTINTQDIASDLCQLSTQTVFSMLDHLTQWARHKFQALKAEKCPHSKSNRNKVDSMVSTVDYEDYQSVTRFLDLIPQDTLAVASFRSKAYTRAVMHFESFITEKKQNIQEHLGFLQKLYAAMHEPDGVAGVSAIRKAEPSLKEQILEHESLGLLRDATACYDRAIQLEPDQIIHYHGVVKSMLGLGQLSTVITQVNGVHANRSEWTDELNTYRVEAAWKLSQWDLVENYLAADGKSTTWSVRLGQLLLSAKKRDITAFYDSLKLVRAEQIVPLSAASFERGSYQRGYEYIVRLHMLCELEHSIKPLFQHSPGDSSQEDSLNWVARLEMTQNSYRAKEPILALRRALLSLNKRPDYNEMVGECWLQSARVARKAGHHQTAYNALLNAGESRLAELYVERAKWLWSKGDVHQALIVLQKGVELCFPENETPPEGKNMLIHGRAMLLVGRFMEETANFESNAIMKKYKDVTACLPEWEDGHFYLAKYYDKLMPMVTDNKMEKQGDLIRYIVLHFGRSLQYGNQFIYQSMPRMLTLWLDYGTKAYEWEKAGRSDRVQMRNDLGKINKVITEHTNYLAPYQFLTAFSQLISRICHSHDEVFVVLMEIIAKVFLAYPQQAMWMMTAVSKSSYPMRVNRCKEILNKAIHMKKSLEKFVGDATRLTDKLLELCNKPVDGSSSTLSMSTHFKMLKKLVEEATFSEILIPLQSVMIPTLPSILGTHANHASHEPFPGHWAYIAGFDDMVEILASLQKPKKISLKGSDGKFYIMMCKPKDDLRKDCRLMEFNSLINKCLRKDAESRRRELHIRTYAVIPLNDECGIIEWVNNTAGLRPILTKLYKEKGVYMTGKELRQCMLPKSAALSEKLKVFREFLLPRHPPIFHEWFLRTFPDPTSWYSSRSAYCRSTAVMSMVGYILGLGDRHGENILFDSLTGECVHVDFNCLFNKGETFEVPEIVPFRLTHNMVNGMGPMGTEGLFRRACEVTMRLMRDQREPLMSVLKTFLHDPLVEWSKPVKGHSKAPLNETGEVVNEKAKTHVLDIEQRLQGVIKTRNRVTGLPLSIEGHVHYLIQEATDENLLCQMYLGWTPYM

Take `Cc1ccncc1NC(=O)c1c(N)nn2cc3c(nc12)CCN(C1COC1)C3` [Compound I-20, 2-amino-N-(4-methylpyridin-3-yl)-7-(oxetan-3-yl)-5,6,7,8-tetrahydropyrazolo[1,5-a]pyrido[4,3-d]pyrimidine-3-carboxamide]: the “Synergy with Cisplatin” value in assay [1] is “++ (Cisplatin sensitization value >0.02 μM but <0.2 μM)”. In addition, the Ki on full-length ATR lay within 0.01 to 1 µM.
As to `CC(C)Oc1ncncc1NC(=O)c1c(N)nn2cc3c(nc12)CCNC3` [Compound I-10, 2-amino-N-(4-isopropoxypyrimidin-5-yl)-5,6,7,8-tetrahydropyrazolo[1,5-a]pyrido[4,3-d]pyrimidine-3-carboxamide], in assay [1], the “Synergy with Cisplatin” value is recorded as “++ (Cisplatin sensitization value >0.02 μM but <0.2 μM)”. Moreover, the Ki on full-length ATR is 0.01 to 1 µM.
For `COc1ccncc1NC(=O)c1c(N)nn2cc3c(nc12)CCN(C(C)C)C3` [Compound I-17, 2-amino-7-isopropyl-N-(4-methoxypyridin-3-yl)-5,6,7,8-tetrahydropyrazolo[1,5-a]pyrido[4,3-d]pyrimidine-3-carboxamide], in assay [1], the “Synergy with Cisplatin” value was “++ (Cisplatin sensitization value >0.02 μM but <0.2 μM)”. Further, the Ki at full-length ATR was 0.01 to 1 µM.
Turning to `COc1ncncc1NC(=O)c1c(N)nn2cc3c(nc12)CCNC3` [Compound I-9, 2-amino-N-(4-methoxypyrimidin-5-yl)-5,6,7,8-tetrahydropyrazolo[1,5-a]pyrido[4,3-d]pyrimidine-3-carboxamide], in assay [1], the “Synergy with Cisplatin” value was “+ (Cisplatin sensitization value >0.2 μM but <5 μM)”. In addition, the Ki at full-length ATR fell in the range of 0.01 to 1 µM.
As to `COc1ccncc1NC(=O)c1c(N)nn2cc3c(nc12)CCN(C1COC1)C3` [Compound I-24, 2-amino-N-(4-methoxypyridin-3-yl)-7-(oxetan-3-yl)-5,6,7,8-tetrahydropyrazolo[1,5-a]pyrido[4,3-d]pyrimidine-3-carboxamide], the “Synergy with Cisplatin” value in assay [1] is “++ (Cisplatin sensitization value >0.02 μM but <0.2 μM)”. For the same compound, the Ki at full-length ATR fell in the range of 0.01 to 1 µM.
Regarding `Nc1nn2cc3c(nc2c1C(=O)Nc1cncc(F)c1C1CC1)CCN(C1COC1)C3` [Compound I-22, 2-amino-N-(4-cyclopropyl-5-fluoropyridin-3-yl)-7-(oxetan-3-yl)-5,6,7,8-tetrahydropyrazolo[1,5-a]pyrido[4,3-d]pyrimidine-3-carboxamide], in assay [1], the “Synergy with Cisplatin” value was “++ (Cisplatin sensitization value >0.02 μM but <0.2 μM)”. Also, the Ki on full-length ATR was in the range of 0.01 to 1 µM.
Turning to `COc1cc(Cl)ncc1NC(=O)c1c(N)nn2cc3c(nc12)CCN(C1COC1)C3` [Compound I-25, 2-amino-N-(6-chloro-4-methoxypyridin-3-yl)-7-(oxetan-3-yl)-5,6,7,8-tetrahydropyrazolo[1,5-a]pyrido[4,3-d]pyrimidine-3-carboxamide], in assay [1], the “Synergy with Cisplatin” value is reported as “++ (Cisplatin sensitization value >0.02 μM but <0.2 μM)”. The Ki at full-length ATR lay in the range of 0.01 to 1 µM.
Taken in the same sequence, the figures for `COc1ccncc1NC(=O)c1c(N)nn2cc3c(nc12)CCNC3` [Compound I-2, 2-amino-N-(4-methoxypyridin-3-yl)-5,6,7,8-tetrahydropyrazolo[1,5-a]pyrido[4,3-d]pyrimidine-3-carboxamide] were “++ (Cisplatin sensitization value >0.02 μM but <0.2 μM)” and 0.01 to 1 µM.
For `COc1cc(Cl)ncc1NC(=O)c1c(N)nn2cc3c(nc12)CCN(C)C3` [Compound I-7, 2-amino-N-(6-chloro-4-methoxypyridin-3-yl)-7-methyl-5,6,7,8-tetrahydropyrazolo[1,5-a]pyrido[4,3-d]pyrimidine-3-carboxamide], the “Synergy with Cisplatin” value in assay [1] is “++ (Cisplatin sensitization value >0.02 μM but <0.2 μM)”. For the same compound, on full-length ATR, the Ki lay within 0.01 to 1 µM.
The corresponding values for `COc1c(Cl)cncc1NC(=O)c1c(N)nn2cc3c(nc12)CCNC3` [Compound I-5, 2-amino-N-(5-chloro-4-methoxypyridin-3-yl)-5,6,7,8-tetrahydropyrazolo[1,5-a]pyrido[4,3-d]pyrimidine-3-carboxamide] are “++ (Cisplatin sensitization value >0.02 μM but <0.2 μM)” and 0.01 to 1 µM.
In the case of `COc1ccncc1NC(=O)c1c(N)nn2cc3c(nc12)CCN(C)C3` [Compound I-13, 2-amino-N-(4-methoxypyridin-3-yl)-7-methyl-5,6,7,8-tetrahydropyrazolo[1,5-a]pyrido[4,3-d]pyrimidine-3-carboxamide], the “Synergy with Cisplatin” value in assay [1] is “++ (Cisplatin sensitization value >0.02 μM but <0.2 μM)”. The Ki on full-length ATR is 0.01 to 1 µM.
As for `COc1ccncc1NC(=O)c1c(N)nn2cc3c(nc12)CCN(C(C)(C)C)C3` [Compound I-29, 2-amino-7-(tert-butyl)-N-(4-methoxypyridin-3-yl)-5,6,7,8-tetrahydropyrazolo[1,5-a]pyrido[4,3-d]pyrimidine-3-carboxamide], the Ki on full-length ATR is 0.01 to 1 µM.
As for `Nc1nn2cc3c(nc2c1C(=O)Nc1cnccc1C1CC1)CCN(C1COC1)C3` [Compound I-21, 2-amino-N-(4-cyclopropylpyridin-3-yl)-7-(oxetan-3-yl)-5,6,7,8-tetrahydropyrazolo[1,5-a]pyrido[4,3-d]pyrimidine-3-carboxamide], the “Synergy with Cisplatin” value in assay [1] is “++ (Cisplatin sensitization value >0.02 μM but <0.2 μM)”. At full-length ATR, the Ki is 0.01 to 1 µM.
The corresponding values for `CN1CCc2nc3c(C(=O)Nc4cncc(F)c4C4CC4)c(N)nn3cc2C1` [Compound I-12, 2-amino-N-(4-cyclopropyl-5-fluoropyridin-3-yl)-7-methyl-5,6,7,8-tetrahydropyrazolo[1,5-a]pyrido[4,3-d]pyrimidine-3-carboxamide] are “++ (Cisplatin sensitization value >0.02 μM but <0.2 μM)” and 0.01 to 1 µM.
On to `COCCN1CCc2nc3c(C(=O)Nc4cnccc4C4CC4)c(N)nn3cc2C1` [Compound I-28, 2-amino-N-(4-cyclopropylpyridin-3-yl)-7-(2-methoxyethyl)-5,6,7,8-tetrahydropyrazolo[1,5-a]pyrido[4,3-d]pyrimidine-3-carboxamide], for which the “Synergy with Cisplatin” value in assay [1] is on record as “++ (Cisplatin sensitization value >0.02 μM but <0.2 μM)”. Further, the Ki at full-length ATR is 0.01 to 1 µM.
As for `CN1CCc2nc3c(C(=O)Nc4cnccc4C4CC4)c(N)nn3cc2C1` [Compound I-11, 2-amino-N-(4-cyclopropylpyridin-3-yl)-7-methyl-5,6,7,8-tetrahydropyrazolo[1,5-a]pyrido[4,3-d]pyrimidine-3-carboxamide], the “Synergy with Cisplatin” value in assay [1] is given as “+++ (Cisplatin sensitization value of <0.02 μM)”. Further, at full-length ATR, the Ki fell in the range of 0.01 to 1 µM.
For `COc1ccncc1NC(=O)c1c(N)nn2cc3c(nc12)CCN(C1CC1)C3` [Compound I-18, 2-amino-7-cyclopropyl-N-(4-methoxypyridin-3-yl)-5,6,7,8-tetrahydropyrazolo[1,5-a]pyrido[4,3-d]pyrimidine-3-carboxamide], the “Synergy with Cisplatin” value in assay [1] is given as “++ (Cisplatin sensitization value >0.02 μM but <0.2 μM)”. Moreover, on full-length ATR, the Ki lay within 0.01 to 1 µM.
In the case of `Nc1nn2cc3c(nc2c1C(=O)Nc1cnccc1-c1ccccc1)CCN(C1COC1)C3` [Compound I-23, 2-amino-7-(oxetan-3-yl)-N-(4-phenylpyridin-3-yl)-5,6,7,8-tetrahydropyrazolo[1,5-a]pyrido[4,3-d]pyrimidine-3-carboxamide], the Ki at full-length ATR fell in the range of 0.01 to 1 µM.
For `Cn1cncc1-c1ccncc1NC(=O)c1c(N)nn2cc3c(nc12)CCN(C1COC1)C3` [Compound I-32, 2-amino-N-(4-(1-methyl-1H-imidazol-5-yl)pyridin-3-yl)-7-(oxetan-3-yl)-5,6,7,8-tetrahydropyrazolo[1,5-a]pyrido[4,3-d]pyrimidine-3-carboxamide], on full-length ATR, the Ki fell in the range of 0.01 to 1 µM.
